# Experiments:
# [1] = tested on: BSAP and PICP serum levels, NTX urine levels; test: Example 3 clinical trial of rhPTH(1-34) vs alendronate: bone markers; type: in vivo, human; conditions: 40 μg/day PTH
# Experimental: • Number of Subjects: • rhPTH(1-34): 73 enrolled, 51 finished. • Alendronate (Fosamax®): 73 enrolled, 57 finished. • Diagnosis and Inclusion Criteria: Women aged 65±8 years, postmenopausal for 19±19 years, selected for a baseline spine bone mineral density of 0.8±0.1 and a T value of −2.2. Dosage and Administration: • Test Product (blinded) • rhPTH(1-34): 40 μg/day, given subcutaneously • Reference (Control) Therapy (blinded) • Alendronate (Fosamax®): 10 mg per patient per day • Duration of Treatment: • rhPTH(1-34): 12-18 months, with follow up from time of withdrawal of drug to 18 months of study. • Alendronate: 12-18 months, with follow up from time of withdrawal of drug to 18 months of study. • Criteria for Evaluation: Spine x-ray, serum biological markers (calcium, bone-specific alkaline phosphatase, procollagen I carboxy-terminal propeptide); urine makers (calcium, N-telopeptide, fir deoxypyridinoline); 1,25-dihydroxyvitamin D; bone mineral density spine, hip, wrist, and total body.
# Measures of BSAP, PICP, and NTX levels were determined for each patient through the course of therapy generally according to methods described above in Example 1.
# postmenopausal women = test: Example 4 population pharmacodynamic models of total lumbar spine and femoral neck BMD; type: in vivo, human
# Text: Data from the studies described in Examples 1-3 above were further analyzed to develop more detailed models for the use of bone markers in monitoring and predicting effects of PTH on clinically significant correlates of efficacy in the treatment of osteoporosis, such as bone mineral density (BMD). Population pharmacodynamic (PD) models were developed to describe total lumbar spine and femoral neck bone mineral density (BMD) responses in ˜1500 postmenopausal women enrolled in a phase 3 study of LY333334 [rhPTH(1-34)]. Serum LY333334 (LY), procollagen 1 carboxy-terminal propeptide (PICP) and bone specific alkaline phosphatase (B SAP) concentrations, and urinary excretion of N-telopeptide (NTX) and free deoxypyridinoline (DPD) were also measured in a subset of ˜350 patients. LY dose, average steady-state LY concentration, and early changes in markers of bone turnover were each evaluated for their ability to predict subsequent changes in BMD. […] Response was greatest in patients with increased fracture risk (i.e., older women with low BMD, low body weight, and high bone turnover at baseline). In the subset analysis, PICP was the strongest indicator of BMD response; an increase >101 pM after 1 month of therapy was always associated with a gain in spine BMD. NTX was also a better predictor of increase in BMD than LY dose, but dose predicted BMD response better than LY, BSAP or DPD concentrations (p<0.001).
# Population pharmacodynamic models were developed individually for total lumber spine BMD, femoral neck BMD, procollagen 1 carboxy-terminal propeptide (PICP), bone specific alkaline phosphate (BSAP), urinary N-telopeptide (NTX), and urinary free deoxypyridinoline (DPD). These treatment-response models characterized change in the pharmacodynamic endpoints and identified significant patient factors influencing response to therapy.
# The final treatment-response models for total lumbar spine and femoral neck BMD were used to calculate BMD values after 21 months of treatment for each patient, based on the individual's parameter estimates (empirical Bayesian estimates). Similarly, the final treatment-response models for each biochemical maker (PICP, BSAP, NTX, and DPD) were used to calculate concentration values after 1 month of treatment for each patient. These predicted BMD measurements were merged with the predicted biochemical marker concentrations for patients who completed at least 12 months of LY333334 therapy.
# Biochemical marker response-indicator models were developed to characterize the relationship between the biochemical marker concentrations at 1 month and response to therapy, as measured by change in total lumbar spine and femoral neck BMD.
# Population pharmacodynamic analyses were undertaken to evaluate the time course of the relationships between efficacy measures and LY333334 dose or LY333334 concentrations. […] As a part of this assessment, a population placebo-response model describing the change in BMD in patients randomly assigned to placebo (supplemented with calcium and vitamin D) was first developed. Patient-specific factors that explained some of the variability of that model were identified and included in the model. A pharmacodynamic model describing the therapeutic response was then developed for patients randomly assigned to LY333334 treatment using the placebo-response model as the baseline function. Thus, the progression of bone loss that occurs in osteoporosis patients receiving only calcium and vitamin D supplementation was separated from the effects of LY333334 treatment.
# human subjects = test: Applicant's studies of daily dose of hPTH(1-34) in human subjects (bone markers, side effects); type: in vivo
# Experimental: Therefore, treatment of osteoporosis in men or women with hPTH(1-34) preferably should use a daily dose greater than about 6 μg, more preferably at least about 15 μg. […] Therefore, any daily dose of hPTH(1-34) in the range of greater than about 6 μg to at least about 40 μg would be effective for reduction of the risk of both vertebral and nonvertebral fractures, according to the present method of using this form of parathyroid hormone.
# [2] = about 5-6 weeks following termination (18 months)
# [3] = 21 months, 20 and 40 μg groups together
smiles,measurement,setting,value
CC[C@H](C)[C@H](NC(=O)[C@H](CCC(=O)O)NC(=O)[C@H](CO)NC(=O)[C@@H](NC(=O)[C@@H](N)CO)C(C)C)C(=O)N[C@@H](CCC(N)=O)C(=O)N[C@@H](CC(C)C)C(=O)N[C@@H](CCSC)C(=O)N[C@@H](Cc1cnc[nH]1)C(=O)N[C@@H](CC(N)=O)C(=O)N[C@@H](CC(C)C)C(=O)NCC(=O)N[C@@H](CCCCN)C(=O)N[C@@H](Cc1cnc[nH]1)C(=O)N[C@@H](CC(C)C)C(=O)N[C@@H](CC(N)=O)C(=O)N[C@@H](CO)C(=O)N[C@@H](CCSC)C(=O)N[C@@H](CCC(=O)O)C(=O)N[C@@H](CCCN=C(N)N)C(=O)N[C@H](C(=O)N[C@@H](CCC(=O)O)C(=O)N[C@@H](Cc1c[nH]c2ccccc12)C(=O)N[C@@H](CC(C)C)C(=O)N[C@@H](CCCN=C(N)N)C(=O)N[C@@H](CCCCN)C(=O)N[C@@H](CCCCN)C(=O)N[C@@H](CC(C)C)C(=O)N[C@@H](CCC(N)=O)C(=O)N[C@@H](CC(=O)O)C(=O)N[C@H](C(=O)N[C@@H](Cc1cnc[nH]1)C(=O)N[C@@H](CC(N)=O)C(=O)N[C@@H](Cc1ccccc1)C(=O)O)C(C)C)C(C)C [LY333334],BSAP level after termination of PTH treatment,[1]; (18 months),BSAP remained at an elevated level
same,percent change in PICP serum levels during treatment,[1]; FIG. 8,reached a peak within about one or two months
same,percent change in NTX urine levels during treatment,[1]; FIG. 9,increased steadily until about 12 months after treatment initiation
same,NTX levels after termination of PTH treatment,[1]; [2],had declined but remained elevated compared to pretreatment levels
same,PICP levels after termination of PTH treatment,[1]; [2],PICP levels were the same pre-treatment levels
same,final PD model predicted increase in hip (femoral neck) BMD,"postmenopausal women; 40 μg/day, 21 months",~5.2%
same,final PD model predicted increase in total lumbar spine BMD,"postmenopausal women; 40 μg/day, 21 months",~14.6%
same,treatment group model change from mean baseline femoral neck BMD,"postmenopausal women; 20-μg group, 21 months",2.8%
same,treatment group model change from mean baseline spine BMD,"postmenopausal women; 20-μg group, 21 months",10.5%
same,treatment group model predicted change in femoral neck BMD,"postmenopausal women; 20-μg group, 21 months",0.018 g/cm^2
same,treatment group model predicted change in spine BMD,"postmenopausal women; 20-μg group, 21 months",0.086 g/cm^2
same,base model change from mean baseline femoral neck BMD,postmenopausal women; [3],4.2%
same,base model change from mean baseline spine BMD,postmenopausal women; [3],12.6%
same,"base model predicted increase in femoral neck BMD, typical treated patient","postmenopausal women; 21 months, 20 and 40 μg groups together, 272 patients",0.027 g/cm^2
same,"base model predicted increase in spine BMD, typical treated patient","postmenopausal women; 21 months, 20 and 40 μg groups together, 276 patients",0.103 g/cm^2
same,treatment group model change from mean baseline femoral neck BMD,"postmenopausal women; 40-μg group, 21 months",5.3%
same,treatment group model change from mean baseline spine BMD,"postmenopausal women; 40-μg group, 21 months",14.8%
same,treatment group model predicted change in femoral neck BMD,"postmenopausal women; 40-μg group, 21 months",0.034 g/cm^2
same,treatment group model predicted change in spine BMD,"postmenopausal women; 40-μg group, 21 months",0.121 g/cm^2
same,subjects with a negative BMD response (spine BMD<0.00 g/cm^2),"postmenopausal women; from a total of 272, 21 months, FIG. 11",four
same,effect on bone formation as indicated by bone markers,human subjects; 6 μg,no significant effects
same,undesirable side effects,human subjects; daily dose of about 20 μg vs about 40 μg,fewer undesirable side effects
same,"lowest tested dose effective for stimulation of bone formation, as indicated by bone markers","human subjects; human subjects, daily dose",about 15 μg
